One experiment concerns DCs. Kind of experiment: Fluorescence microscopy analysis of phage binding and internalization. The format is cell-based, human. The conditions noted are these: 37° C. for 90 min. As to the method: DCs were incubated with biotinylated phages at 4° C. for 30 min. After washing, the cells were incubated with streptavidin-PE. […] Hoechst 33342 dye was added to the cells for 5 min and then the cells were washed, fixed with 4% paraformaldehyde, and covered with Dako cytomation fluorescent mounting medium and analyzed with epifluorescence microscopy. Confocal images were obtained using an AxioVert 200 microscope (Carl Zeiss, Jena, Germany).

Experiment [1] has as its system NK cells. Kind of experiment: Phage binding by flow cytometry. Also noted: species or system human. As to the method: (§1) In brief, aliquots of DCs (10^5) were divided into conical 96-well micro-plate, washed with PBS buffer containing 1% FCS, and then incubated with the amplified phages (≈10^9 TU) for 30-60 min on ice. After washing, cells were incubated with biotinylated anti-M13 monoclonal antibody (Abcam) and then with phycoerythrin (PE)-conjugated streptavidin. Competition assays were performed by pre-incubating DCs with different amounts of the peptides for 15 min on ice. Then NW phage (≈10^9 TU) was added and samples incubated for additional 60 min on ice. After washing, bound phages were detected as indicated above. Samples were analyzed by FACSCanto II flow cytometry.

Experiment [2] deals with Cancer cell lines (MCF-7, MDA-MB 231, SW480, REH). Kind of experiment: Phage binding by flow cytometry. Also noted: species or system human. The conditions noted are these: all tested cancer cell lines. Here is the method:
as §1

Experiment [3] deals with Blood pDCs. Kind of experiment: Phage binding by flow cytometry. Also noted: species or system human. As to the method: as §1
Background: A flow cytometer gives signals particle by particle.

The subject of experiment [4] is iDCs. Nature of the experiment: Phage binding by flow cytometry. Also noted: species or system human. As to the method: as §1
The subject of experiment [5] is T cells. Kind of experiment: Phage binding by flow cytometry. Also noted: species or system human. As to the method:
as §1

Experiment [6] relates to mDCs. Kind of experiment: Phage binding by flow cytometry. Also noted: species or system human. Here is the method: as §1
In experiment [7] the test system is B cells. Kind of experiment: Phage binding by flow cytometry. The arrangement: species or system human. Here is the method:
as §1

Experiment [8] relates to Monocytes. Kind of experiment: Phage binding by flow cytometry. The arrangement: species or system human. Here is the method:
as §1

Experiment [9] deals with Blood myeloid DCs. Kind of experiment: Phage binding by flow cytometry. The arrangement: species or system human. As to the method:
as §1

In another experiment the test system is THP-1. Nature of the experiment: Phage binding by flow cytometry. As to conditions: human monocyte cell line THP-1. Here is the method:
as §1

For experiment [10], the system named is NK cells. Kind of experiment: Peptide binding by flow cytometry. The arrangement: species or system human. Here is the method:
(§2) The cells were seeded onto 24-well plate (3×10^5/well/0.5 ml) in X-vivo 15 medium and incubated overnight at 37° C. Subsequently, they were incubated with 6IAF-conjugated peptides (5 μg/ml) for 30 min at 37° C., gently scraped, washed 3 times and then analyzed by flow cytometry. Binding was also performed at 4° C.

In experiment [11] the test system is Blood pDCs. Nature of the experiment: Peptide binding by flow cytometry. The arrangement: species or system human. As to the method: as §2
Experiment [12] has as its system iDCs. Nature of the experiment: Peptide binding by flow cytometry. Also noted: species or system human. The conditions noted are these: 4° C. and 37° C. As to the method:
as §2

Experiment [13] relates to T cells. Nature of the experiment: Peptide binding by flow cytometry. The arrangement: species or system human. Here is the method: as §2
Experiment [14] has as its system B cells. Nature of the experiment: Peptide binding by flow cytometry. Also noted: species or system human. As to the method: as §2
For experiment [15], the system named is Monocytes. Nature of the experiment: Peptide binding by flow cytometry. The arrangement: species or system human. The conditions noted are these: compared with dendritic cells. Here is the method:
as §2

The subject of experiment [16] is Blood myeloid DCs. Nature of the experiment: Peptide binding by flow cytometry. Also noted: species or system human. As to the method: as §2
For another experiment, the system named is mDC. Kind of experiment: Phenotypic analysis of DCs after peptide incubation. The format is cell-based, human. As to conditions: mDC incubated with peptide (15 μM) for 48 h, flow cytometry. Here is the method: Phenotype of DCs was analyzed by direct immunofluorescence staining of cell surface antigens using FITC or PE conjugated antibodies against CD80, CD83, CD86, HLA-DR, CCR7, CD40, and isotype controls. All antibodies were purchased from Dako (Glostrup, Denmark) or BD Biosciences (San Diego, Calif., USA). After staining on ice for 30 min, samples were washed twice and then analyzed by FACSCantoII flow cytometry
(§3) With respect to cancer immunotherapy and active immunization against infectious diseases, targeting moieties should not have a negative impact on DC immunogenic function. To investigate whether the NW peptide can modulate DC phenotype and function, mDC were incubated with the peptide for 48 h and subsequently the expression of CD80, CD83, CD86, and HLADR molecules were analyzed by flow cytometry. […] The ability of mDCs to stimulate T-cell proliferation was assessed in a mixed leukocyte reaction (MLR), a hallmark of DC function. […] The NW-peptide had no major negative effects on DC phenotype and function.

Experiment [17] deals with Monocytes. Nature of the experiment: Competition of NW phage binding by NW peptide and its mutant peptides. Also noted: species or system human. Here is the method: as §1
To uncover the contribution of individual side chains and identify which amino acids are responsible for the NW peptide binding to monocytes and dendritic cells, alanine scanning was performed. Derivatives of the NW peptide were synthesized with exchange of each amino acid by alanine (FIG. 11A). These peptide derivatives were used to compete with the NW phage binding to monocytes. For each peptide, four concentrations were tested. Bound phage particles were detected with the use of biotin conjugated anti-M13 antibody and PE-conjugated streptavidin. The NW peptide (WT) competed effectively with the phage binding to monocytes with an IC50 of approximately 0.5 uM. The replacement of tryptophan (W) at position 2, 6, or 12 by a single alanine abolished the binding. Indeed, no significant competition with the phage binding was seen even at high peptide concentrations (C4=20 uM). Similarly, replacement of leucine (L) at position 4 or 7 by alanine inhibited the peptide binding (FIG. 11B).

In another experiment the test system is iDC. Kind of experiment: Competition of NW phage binding by synthetic peptides. The arrangement: species or system human. As to the method: as §1
To further investigate the importance of the NW peptide on phage binding, competition experiments were performed using synthetic peptides.

The test system of another experiment is human Gal-3. Kind of experiment: Gene silencing by peptide-siRNA conjugates, Western blot. The format is cell-based. The conditions noted are these: iDCs, 48 h incubation. As to the method:
Immature DCs were seeded in a 6-well plate at a density of 10^6 cells per well and incubated for 24 h prior to transfection. Then the medium was replaced by fresh X-vivo 15 medium (2 ml/well) containing peptide-siRNA conjugates or free siRNAs. Cells were harvested 48 h after addition of the test molecules and monitored for gene expression by Western blots.
Cells were resuspended in protein extraction buffer (PBS+1% NP-40) supplemented with protease inhibitor cocktail (Sigma-Aldrich Norge, Oslo, Norway) and incubated for 30 min on ice. After centrifugation, the supernatant were collected and protein contents were determined using Bio-Rad protein assay. Equal amounts of protein were resolved by electrophoresis on a 10% sodium dodecyl sulfate (SDS)-polyacrylamide gel and electrotransferred to nitrocellulose membrane. After blocking in 5% milk in TBS-Tween (1%) for 60 min, membranes were probed with primary antibodies against Gal-3 and HRP-conjugated secondary antibody. Immunoreactive proteins were detected using the enhanced chemiluminescence system. To control for protein loading, membranes were stripped and then incubated with β-actin monoclonal antibody.
Because siRNA molecules must be released into the cytoplasm in order to function (Elbashir et al., (2001) Nature 411, 494-498), the data further confirm the internalization of the peptide after binding to DCs.
(In general: A western blot detects proteins with antibodies after separation by electrophoresis.)

Experiment [18] has as its system iDCs. Nature of the experiment: Peptide binding and internalization by fluorescence microscopy. The format is cell-based, human. Here is the method:
Then the medium was replaced with fresh medium and the cells were incubated with the peptides (5 μg/ml) for 60 min at 37° C. followed by 5 min incubation with Hoechst 33342 (Invitrogen Dynal AS, Oslo, Norway). The cells were washed twice with PBS and fixed with 4% paraformaldehyde for 15 min at 4° C. After washing, slides were covered with Dako cytomation fluorescent mounting medium and then images were taken with either epifluorescence (Leica DM RHC, Leica Microscopy As, Oslo, Norway) or confocal microscopy (Zeiss LSM 510, […]).

Experiment [19] deals with mDCs. Kind of experiment: Mixed leukocyte reaction (MLR). The experiment is classed as cell-based, human. The conditions noted are these: peptide-treated vs untreated mDCs. Here is the method:
as §3

Experiment [20] concerns Monocytes. As to conditions: biotin labeled peptide (10 μg), Dynabeads M-280 streptavidin, flow cytometry.
Experimental: In these experiments, peripheral blood mononuclear cells were isolated from buffy coats of healthy donors by density gradient centrifugation. […] Subsequently, the cells were washed with the binding buffer to remove unbound peptide and then they were suspended in 100 μl binding buffer. Subsequently, pre-washed Dynabeads M-280 streptavidin (20 μl) were added and the mixtures were incubated for 15 min at room temperature with agitation. After, the mixtures were placed in the separation magnet, during which time the beads and any attached cells are drawn to one side of the tube. Non-attached cells were carefully aspirated off and analyzed by flow cytometry to check the removal of the monocyte fraction (FIG. 15).
In experiment [21] the test system is iDCs. Here is the method: Commercially available streptavidin-PE (1/200) was incubated with biotinylated NW peptide or control peptide (1 μg/ml) for 30 min at RT. Then the mixtures were added to DCs growing in Lab-Tek chamber slides (Nalge Nunc International, Naperville, USA) and incubated for 60 min at 4° C. The cells were washed 3 times with medium and incubated at 37° C. for 90 min to allow internalization of bound streptavidin-PE. To visualize the nuclei, Hoechst 33342 (Invitrogen Dynal AS, Oslo, Norway) was added to the cells for 5 min. Subsequently, the cells were fixed with 4% paraformaldehyde, washed and slides were covered with Dako cytomation fluorescent mounting medium followed by epifluorescence microscopy analysis. Confocal images were taken with an AxioVert 200 microscope (Carl Zeiss, Jena, Germany).
The use of the NW peptide to target antigens to DCs was assessed by examining its ability to promote the binding and uptake of streptavidin-PE complexes. For these experiments, streptavidin-PE was pre-incubated with either biotin conjugated NW peptide or biotin conjugated control peptide and then the mixtures were added to iDCs growing in Lab-Tek chamber slides, incubated at 4° C., washed and then transferred at 37° C.

Broadly, the IC50 is the concentration that inhibits the measured activity by half.

Like-named read-outs stand apart in the source and are kept apart here. Where no end group is shown, it is not given here.

In the case of NWYLPWLGTNDW [DC2], the “internalization of the phage particles into DCs” value in the experiment with DCs was “able to mediate the internalization of the phage particles into DCs”. Moreover, the “phage binding” value in the experiment with NK cells [1] is “did not bind”; in experiment [2], “did not bind”; in the experiment on Blood pDCs [3] (CD303+ plasmacytoid DCs), “bound”; with iDCs [4] (iDC) it was “strong binding”; in the experiment with T cells [5], “did not bind”; with mDCs [6] it was “strong binding”. Further, the “phage binding” value is “did not bind” in the experiment on B cells [7], “strong binding” in the experiment with Monocytes [8], “bound” with Blood myeloid DCs [9] (blood CD1c+ myeloid DCs) and “did not bind” in the experiment on THP-1. Also, the “Phage Binding” value with Blood pDCs [3] (Blood pDCs), in the experiment on iDCs [4] (iDCs), in the experiment with mDCs [6], with Monocytes [8] and in the experiment on Blood myeloid DCs [9] (Blood myeloid DCs) was “++++ (Binding >80-100%: ++++)” throughout. Also, the “phage binding after trypsine treatment of DCs” value in the experiment on iDCs [4] (Trypsine treatment of DCs, data not shown) was “eliminated phage binding”. In addition, the Binding result in the experiment on iDCs [4] (binding of the phage clones to iDC, flow cytometry) is listed as “++++ (Binding >80-100%: ++++)”.

“NWYLPWLGTNDWC [NW peptide, NWYLPWLGTNDWC]”: the “peptide binding” value is “did not bind” with NK cells [10]; “++++ (Binding >80-100%: ++++)” in the experiment with Blood pDCs [11] (Blood pDCs); “bound efficiently” in the experiment on Blood pDCs [11] (CD303+ plasmacytoid DCs); “bound” in the experiment on Blood pDCs [11] (CD303+ plasmacytoid DCs, listed as synthetic peptide); “did not bind” with T cells [13]; “did not bind” in the experiment on B cells [14]. Moreover, the “peptide binding” value with Monocytes [15] is “bound as strongly to monocytes as to dendritic cells”; with Blood myeloid DCs [16] (Blood myeloid DCs), “++++ (Binding >80-100%: ++++)”; with Blood myeloid DCs [16] (blood CD1c+ myeloid DCs) it was “bound efficiently”; in the experiment with Blood myeloid DCs [16] (blood CD1c+ myeloid DCs, listed as synthetic peptide), “bound”. Moreover, the “binding of 6-IAF-conjugated peptides to iDCs” value in the experiment with iDCs [12] is “strong binding both at 4 °C and 37 °C”. Further, the “expression of CD80, CD83, CD86, and HLADR molecules” value in the experiment on mDC is reported as “None of the analyzed markers were significantly affected”. Moreover, the IC50 at Monocytes [17] (dose-dependent inhibition, peptide concentrations 0.4, 2, 8, and 20 μM, read-out: inhibition of the NW phage binding, IC50) was 500 nM; at Monocytes [17] (monocytes, read-out: competition with the phage binding to monocytes, IC50), roughly 500 nM. In addition, in the experiment on iDC, the “inhibition of the phage binding to iDC by synthetic peptides” value is listed as “effectively inhibited the phage binding to iDC in a concentration-dependent manner”. In the experiment on human Gal-3, the Gal-3 gene silencing result is “did not induce any detectable gene silencing”. The “cell staining by epifluorescence microscopy” value with iDCs [18] (6-IAF-conjugated peptide) is given as “strong cell staining”. Further, in the experiment on iDCs [18] (37° C.), the “internalization by iDCs (confocal microscopy)” value is “efficiently internalized by iDCs”. Further, the “T-cell proliferation in MLR” value in the experiment on mDCs [19] was “comparable T-cell proliferation”.

As to “NWYLPWLGTNDWGGGK-Biotin [NW-Biotin peptide]”, the “removal of the monocyte fraction from PBMC” value in the experiment on Monocytes [20] is “most, if not all monocyte population were removed”. Also, the “binding of streptavidin-PE complexes to DCs” value in the experiment with iDCs [21] (biotinylated peptide pre-incubated with streptavidin-PE, 4° C.) was “mediated the binding of streptavidin-PE complexes to DCs”. Moreover, in the experiment with iDCs [21] (confocal microscopy, after transfer to 37° C.), the “internalization of streptavidin-PE” value was “clear internalization and cellular localization of streptavidin-PE molecules”.

The record behind these values is US20160083424A1, “COMPOSITIONS AND METHODS FOR TARGETING ANTIGEN-PRESENTING CELLS” (OSLO UNIVERSITETSSYKEHUS HF, priority 2013, published 2016).
